Read-outs that look alike come from different tables or passages of the source.
Legend:
[1] = tested on: primary peritoneal mouse macrophages (PMM); assay: cells; details: Macrophage
in vitro [2] = details: human, microsomes; for microsomal CLint at 0.5 μM: pH 7.4, HLM CLint (uL/min/mg), human liver microsomes
in vitro [3] = details: mouse, microsomes; for microsomal CLint at 0.5 μM: pH 7.4, MLM CLint (uL/min/mg), mouse liver microsomes
physchem = details: HPLC, Ascentis Express RP Amide column
in vitro [4] = details: human; for CC50 at 120 h: THP-1 cells differentiated with PMA
[5] = tested on: Leishmania infantum MHOM/MA(BE)/67/ITMAP263 intracellular amastigotes; assay: microbe, parasite or virus in culture; details: Macrophage, in Mus musculus
[6] = tested on: Leishmania infantum (MHOM/MA/67/ITMAP-263) intracellular amastigotes in THP-1; assay: microbe, parasite or virus in culture
in vitro [7] = details: human
in vitro [8] = details: human, HFF-1 cells
in vitro [9] = details: human, HepG2 cells
in vitro [10] = details: PAMPA
[11] = tested on: Trypanosoma cruzi, Tulahuen CL2, beta-galactosidase strain; assay: microbe, parasite or virus in culture; details: MRC5, read-out: T. cruzi Tulahuen C4 (LacZ) IC50 (uM)
[12] = read-out: L. Inf. pIC50, from L. infantum intracellular amastigote IC50 (converted)
[13] = read-out: L. infantum MHOM/MA(BE)/67/ITMAP263 intracellular amastigotes IC50 (uM), intracellular amastigotes
[14] = THP-1, read-out: L. infantum MHOM/MA/67/ITMAP263 intracellular amastigotes THP-1 cells IC50 (uM)

Row | Compound | IC50 ([1]; read-out: PMM pIC50 (converted)) [µM] | microsomal CLint at 0.5 h, 0.5 µM (in vitro [2]; pH 7.4, Microsome Clint,u Human, Table 2, intrinsic in vitro clearance, liver microsomes) [µL/min/mg] | microsomal CLint at 0.5 h, 0.5 µM (in vitro [3]; pH 7.4, Microsome Clint,u Mouse, Table 2, intrinsic in vitro clearance, liver microsomes) [µL/min/mg] | chromatographic logD (physchem; pH 7.4, elog D, HPLC measured log D, pH 7.4) | IC50 at 120 h (in vitro [4]; PMA-differentiated THP-1 cells) [µM] | IC50 ([5]; read-out: L. inf. pIC50, intracellular amastigotes in PMM (converted), geometric mean of a minimum of two experiments ± standard error) [µM] | IC50 ([6]; THP-1, 120 h, read-out: Intracellular activity pIC50 L. inf. in THP-1 (converted)) [µM] | IC50 ([1]; read-out: PMM IC50 (uM)) [µM] | chromatographic logD (physchem; pH 7.4, eLogD, experimental) | CC50 at 120 h (in vitro [4]) [µM] | CC50 at 3 days (in vitro [7]) [µM] | CC50 (in vitro [8]) [µM] | CC50 (in vitro [9]) [µM] | Papp (in vitro [10]) [×10⁻⁶ cm/s] | IC50 [5, 12] [µM] | IC50 [5, 13] [µM] | IC50 [6, 14] [µM] | IC50 [11] [µM] | microsomal CLint at 0.5 μM (in vitro [2]) [µL/min/mg] | microsomal CLint at 0.5 μM (in vitro [3]) [µL/min/mg]
1 | COc1ccc(C(=O)N2CCOCC2)cc1S(=O)(=O)N(Cc1ccccc1)CC(C)(C)C [Compound 45] | > 64.6 | 1600 | 2580 | 3.8 | > 64.6 | 1 | 27.5 | – | – | – | – | – | – | – | – | – | – | – | – | –
2 | COCCOCN(Cc1ccccc1)S(=O)(=O)c1cc(OC)ccc1OC [DNDI0003425514] | – | – | – | – | – | – | – | > 64 | 3.4 | > 64 | > 64 | > 64 | > 64 | 12.8 | 6.17 | 6.11 | > 64 | > 64 | – | –
3 | CCCCOc1ccc(C(=O)N2CCOCC2)cc1S(=O)(=O)NCc1ccccc1 [DNDI0003407874] | – | – | – | – | – | – | – | > 64 | 3.1 | > 64 | > 64 | > 64 | > 64 | 27.4 | > 64 | > 64 | > 64 | 45.9 | 160 | 274
4 | COc1ccc(S(N)(=O)=O)cc1S(=O)(=O)NCc1ccccc1 [DNDI0003407892] | – | – | – | – | – | – | – | > 64 | 1.1 | > 64 | > 64 | > 64 | > 64 | 0.61 | > 64 | > 64 | > 64 | > 64 | 20 | 23
5 | COc1ccc(S(C)(=O)=O)cc1S(=O)(=O)N(Cc1ccccc1)CC(C)(C)C [DNDI0003425524] | – | – | – | – | – | – | – | > 64 | 3.6 | > 64 | > 64 | 57.2 | > 64 | 14.1 | 2.69 | 2.69 | 47.7 | 28.7 | 1050 | 1100
6 | CCN(Cc1ccc(F)cc1)S(=O)(=O)c1cc(C(=O)N2CCOCC2)ccc1OC [DNDI0003392124] | – | – | – | – | – | – | – | > 64 | 2.7 | > 64 | > 64 | > 64 | > 64 | 15.5 | 20.9 | 20.7 | > 64 | 36 | 142 | 116
7 | COc1ccc(C#N)cc1S(=O)(=O)N(Cc1ccccc1)Cc1cnc(C(F)(F)F)nc1 [DNDI0003425527] | – | – | – | – | – | – | – | > 64 | – | > 64 | > 64 | > 64 | > 64 | 29.4 | 3.89 | 3.9 | 61.1 | 28.4 | 80 | 100
8 | COc1ccc(S(C)(=O)=O)cc1S(=O)(=O)N(Cc1ccccc1)Cc1cc(C(F)(F)F)nn1C [DNDI0003578374] | – | – | – | – | – | – | – | > 64 | 3.5 | > 64 | > 64 | > 64 | > 64 | 7.6 | 13.2 | 13.1 | > 64 | > 64 | 60 | 182
9 | Nc1cc(Cl)c(S(N)(=O)=O)cc1S(=O)(=O)N(Cc1ccccc1)Cc1ccccc1 [DNDI0003392145] | – | – | – | – | – | – | – | 50.8 | 3.4 | 60.6 | 43.4 | > 64 | > 64 | 3.37 | 35.5 | 35.3 | 31.2 | 17.7 | 253 | –
10 | COc1ccc(C(=O)N2CCOCC2)cc1S(=O)(=O)N(Cc1ccccc1)CC(C)(C)C [DNDI0003407876] | – | – | – | – | – | – | – | > 64 | – | > 64 | > 64 | > 64 | > 64 | 21.7 | 1 | 1 | 27.5 | 16.7 | 1140 | 858

Source: paper PMC8126888 (RSC Medicinal Chemistry, 2020)
